For test [1], the system named is C57BL/6 mice. Kind of test: Mouse air pouch model of in vivo chemotaxis towards LPS. As to conditions: for total amount of white blood cells recruited to the pouches: compound 5 µg with LPS 2 µg, 4 h after injection. How it is done:
Air pouches were established by injecting C57BL/6 mice on dorsal sites with 3 mL filtered air (0.20 μm filter) on days 0 and 3. On day 6, test samples were injected in a total volume of 1 mL and at the indicated amount. After 4 h, mice were euthanized and the exudates of the pouches were collected after injection of 1 mL pyrogen-free PBS containing 20 U/mL heparin and 2% KnockOut™ Serum Replacement (Gibco, Waltham, MA, USA), and followed by 30 sec of gentle massage. This procedure was repeated twice with 2 mL buffer. Next, the pouch fluid was centrifuged (10 min, 500× g) and supernatant and cell pellets were separated for further analysis. Data were collected during three independent experiments with 3–4 mice per group. All procedures were conducted in accordance with protocols approved by the local Ethics Committee (License number P033/2018, Belgium).
For microscopic evaluation of cells derived from air pouches, 75 × 10^3 cells were deposited evenly onto a glass slide by centrifugation using a Shandon Cytospin 2 apparatus (Thermo Shandon, Pittsburgh, PA, USA). Next, the preparations were stained with Hemacolor (Merck Chemicals, Darmstadt, Germany). Cells were divided into 4 categories; neutrophils, monocytes/macrophages, lymphocytes and other cells. For each condition, three times 100 cells were counted and the average was used as a final value.
Approximately 10^6 cells were incubated for 15 min with the Fc-receptor-blocking antibodies anti-CD16/anti-CD32 (BD Biosciences Pharmingen, San Diego, CA, USA) and with a Zombie Aqua™ viability dye (BioLegend, San Diego, CA, USA). […] Cells were analyzed on a BD LSR Fortessa X20 with DIVA software (BD, Franklin Lakes, NJ, USA, v9.0). Results were further analyzed with the FlowJo software (BD, Franklin Lakes, NJ, USA, v10.0). […]

The subject of test [2] is C57BL/6 mice. Nature of the test: Mouse endotoxemia model. Type of test: in vivo. To be noted: for levels of MMP-9 in plasma and lungs (Western blot): 5 h after LPS/compound administration. How it is done: Endotoxemia was induced in 8-week old C57BL/6 mice by intraperitoneal (i.p.) injection of lipopolysaccharides (LPS) (Escherichia coli 0111:B4, cat. no. 4391, Sigma-Aldrich, St. Louis, MO, USA ) at 10 mg/kg. Control mice were injected with an equal volume of vehicle (pyrogen-free phosphate-buffered saline). A volume of 500 µl compound 5 or 7, diluted in PBS with 2% DMSO (2 mg/mL), was injected i.p. at the same time as the LPS injection (± 50 mg/kg). […] After induction of endotoxemia, progression of the disease was monitored by hourly evaluation of mouse body temperature (rectal probe) and disease scoring by use of the mouse sepsis score (MSS) as described. When the MSS score was above 21, humane endpoints were reached and mice were sacrificed. Blood was collected by cardiac puncture with a heparin-coated needle and syringe, and immediately processed by centrifugation (2000× g for 10 min at 4 °C). The supernatant (plasma) was collected and stored for further analysis. Mice were dissected and organs were stored for further analysis. Bone marrow cells were collected from femora by flushing the medullary cavity with PBS and after centrifugation the cell pellet was immediately processed for downstream analysis. All procedures were conducted in accordance with protocols approved by the local ethics committee (project number P128/2019, KU Leuven, Belgium).
Tissues were homogenized and proteins extracted with a Precellys lysing kit (Bertin Technologies, Rockville, MD, USA). Briefly, tissues were placed in hard tissue homogenizing CK28 tubes (Bertin Technologies, Rockville, MD, USA). Then, 600 µL of RIPA buffer was added to all tubes and homogenization was done using the Precellys®24 (Bertin Technologies, Rockville, MD, USA). To precipitate all tissue debris, the tubes were centrifuged at 20,800× g and 4 °C for 15 min. Supernatant, containing soluble proteins, was collected and used for further analysis. Total protein content of all samples was determined by using a standard Bradford assay (Bio-Rad, Hercules, CA, USA). […] Proteins were transferred to PVDF membranes using the Trans-Blot Turbo Transfer System with associated materials and protocols (Biorad, Hercules, CA, USA). Next, membranes were blocked for 1 h in 5% BSA with TBST buffer (150 mM NaCl, 0.1% Tween 20, 50 mM Tris, pH 7.5). Membranes were incubated overnight with anti-MMP-9 (AF909, R & D systems, Minneapolis, MO, USA) or anti-tubulin (MA5-16308-HRP, Invitrogen, Carlsbad, CA, USA) antibodies. After washing, the blot was incubated with peroxidase-conjugated anti-goat IgG (PI-9500, Vector Labs, Burlingame, CA, USA) or anti-mouse IgG (115-035-071, Jackson ImmunoResearch, PA, USA) for 1 h at room temperature. […]
(A western blot detects proteins with antibodies after separation by electrophoresis.)

The mark [3] stands for this setting: 10 mg/kg LPS i.p. and ± 50 mg/kg compound i.p. simultaneously, hourly.

The structures appear in SMILES notation. Entries after “also recorded” stand apart in the source; their conditions may differ.

`CC(C)[C@H](C(=O)O)N(CCNC(=O)c1cccc(C(=O)NCCN([C@@H](C(=O)O)C(C)C)S(=O)(=O)c2ccc(-c3ccccc3)cc2)c1)S(=O)(=O)c1ccc(-c2ccccc2)cc1` [Compound 7]: the “neutrophil migration towards E. coli-derived LPS” value in the test with C57BL/6 mice [1] (air pouch, 4 h) is given as “increases neutrophil migration”. Besides, the “total amount of white blood cells recruited to the pouches” value in the test with C57BL/6 mice [1] is given as “significant increase compared to LPS alone”; with C57BL/6 mice [1] (listed as bivalent inhibitor) it was “amplified leukocyte influxes”. For the same compound, the “disease score (mouse sepsis score, MSS)” value in the test on C57BL/6 mice [2] (setting [3]) is “(although not significant) increase in disease score; also recorded: did not alter disease scores compared to compound 5”. The mouse body temperature result in the test on C57BL/6 mice [2] (setting [3]) was “early and significant drop in mouse body temperature”. The “levels of MMP-9 in plasma and lungs (Western blot)” value with C57BL/6 mice [2] was “further induce the presence of MMP-9; also recorded: increased”; in the test with C57BL/6 mice [2] (listed as bivalent inhibitor), “significantly increased levels of MMP-9 in plasma and lungs”.
